The results in this text go back to ChEMBL document CHEMBL5442168, “ASAP - In vitro liver microsomal stability” (2024).

Data set [1] in a line: Human liver microsomal stability of compound in microsomal protein, PBS buffer pH 7.4, NADPH, glucose-6-phosphate and glucose-6-phosphate dehydrogenase media. Aliquotes were taken at 5 time points and after stopping the reaction, supernatants were analyzed using HPLC coupled with a tandem mass spectrometer. The elimination constant, half-life, and intrinsic clearance are determined as results using linear regression analysis. The assay has been performed by Enamine biological services, Bienta Ltd.The protocol is publicly available: dx.doi.org/10.17504/protocols.io.5qpvokdb9l4o/v1. Conditions: for half-life / microsomal CLint: liver microsomes; for Remaining / Remaining (without cofactor) / CLint / T1/2: microsomes. It is filed as ADME, microsomes, Microsome.

Data set [2] can be described thus: Mouse liver microsomal stability of compound in microsomal protein, PBS buffer pH 7.4, NADPH, glucose-6-phosphate and glucose-6-phosphate dehydrogenase media. Aliquotes were taken at 5 time points and after stopping the reaction, supernatants were analyzed using HPLC coupled with a tandem mass spectrometer. The elimination constant, half-life, and intrinsic clearance are determined as results using linear regression analysis. The assay has been performed by Enamine biological services, Bienta Ltd.The protocol is publicly available: dx.doi.org/10.17504/protocols.io.5qpvokdb9l4o/v1. The conditions noted are these: for half-life / microsomal CLint: liver microsomes; for Remaining / Remaining (without cofactor) / CLint / T1/2: microsomes. It is filed as ADME, microsomes, Microsome.

“And” between values parts separate entries of the source, which are not always exact repeats. Identical values can stand only once.
Wherever Remaining (without cofactor) is given: time not given here.
Wherever Remaining is given: time not given here.

Turning to `CC(C)[C@@H](Nc1ncnc(N)c1Cl)c1ccc2c(c1)S(=O)(=O)CCC2`, in data set [1], the half-life is 21 min, the microsomal CLint was 79 µL/min/mg, the Remaining is given as 27% and the “Remaining (without cofactor)” value came to 101%. Moreover, in data set [2], the half-life stood at 8.2 min, the microsomal CLint was determined as 204 µL/min/mg, the Remaining was 4% and the “Remaining (without cofactor)” value came to 102%.
On to `CNC(=O)c1c[nH]c2ncnc(N[C@@H](c3ccc4c(c3)NC(=O)CO4)C(C)C)c12`, for which, in data set [1], the half-life stood at 19.5 min, the microsomal CLint was 86 µL/min/mg, the Remaining is listed as 23% and the “Remaining (without cofactor)” value is 98%. In data set [2], the half-life came out at 14.8 min, the microsomal CLint is 113 µL/min/mg, the Remaining was determined as 16% and the “Remaining (without cofactor)” value is reported as 95%.
With `CC(C)[C@@H](Nc1ncnc2[nH]c(-c3cnn(CC(N)=O)c3)cc12)c1ccc2c(n1)OCCO2`, in data set [1], the half-life was found to be 120 min, the microsomal CLint was 14 µL/min/mg, the CLint was determined as 18 µL/min/mg and the Remaining amounted to 77%. Further, in data set [1], the “Remaining (without cofactor)” value is given as 95% and the T1/2 is reported as 91.8 min. In data set [2], the half-life came out at 145 min; the microsomal CLint turned out to be 12 µL/min/mg; the CLint was 9 µL/min/mg; the Remaining is 83% and 90%. Moreover, in data set [2], the “Remaining (without cofactor)” value is 104% and 102%; the T1/2 is on record as 182.3 min.
As for `C[C@@H](C(=O)O)[C@@H](NC(=O)c1ncnc2[nH]ccc12)c1ccc(Br)cc1`, in data set [1], the half-life came out at 338 min, the microsomal CLint amounted to 5 µL/min/mg, the Remaining is reported as 103% and the “Remaining (without cofactor)” value is on record as 110%. Further, in data set [2], the half-life is 433 min, the intrinsic metabolic clearance (microsomal CLint) turned out to be 4 µL/min/mg, the Remaining is 94% and the “Remaining (without cofactor)” value worked out at 109%.
Take `CC(C)[C@@H](Nc1ncnc2[nH]c(-c3cnn(C)c3C#N)cc12)c1ccc2c(n1)NC(=O)CO2`: in data set [1], the half-life is 23.7 min; the microsomal CLint is 70 µL/min/mg; the CLint was found to be 51 µL/min/mg; the Remaining is 30% and 43%. For the same compound, in data set [1], the “Remaining (without cofactor)” value is 97% and 98%; the T1/2 amounted to 32.6 min. Also, in data set [2], the half-life is 11.5 min; the intrinsic metabolic clearance (microsomal CLint) came out at 145 µL/min/mg; the CLint was found to be 189 µL/min/mg; the Remaining was 9% and 5%. For the same compound, in data set [2], the “Remaining (without cofactor)” value stood at 92% and the T1/2 came to 8.8 min.
Take `CC(C)[C@@H](Nc1ncnc2[nH]c(-c3cnn(CC(N)=O)c3)cc12)c1ccc2c(c1)NC(=O)CO2`: in data set [1], the half-life stood at 99.2 min, the microsomal CLint turned out to be 17 µL/min/mg, the Remaining was 73% and the “Remaining (without cofactor)” value came out at 91%. Further, in data set [2], the half-life worked out at 156 min, the microsomal CLint was 11 µL/min/mg, the Remaining was found to be 84% and the “Remaining (without cofactor)” value was determined as 102%.
`CNCc1cc(-c2cc3c(N[C@@H](c4ccc5c(c4)S(=O)(=O)CCC5)C(C)C)ncnc3[nH]2)co1`: in data set [1], the CLint is 57 µL/min/mg and 133 µL/min/mg; the “Remaining (without cofactor)” value is 110% and 95%; the T1/2 is 29.4 min and 12.6 min. In data set [2], the half-life is 32.2 min; the microsomal CLint was 52 µL/min/mg; the CLint turned out to be 54 µL/min/mg; the Remaining is 41% and 35%. Moreover, in data set [2], the “Remaining (without cofactor)” value is 108% and 101%; the T1/2 is on record as 30.9 min.
Turning to `CC(C)[C@@H](Nc1ncnc2[nH]c(-c3cnn(C)c3C#N)cc12)c1ccc2c(c1)NC(=O)CO2`, in data set [1], the half-life came out at 16.6 min; the microsomal CLint is 100 µL/min/mg; the CLint came out at 52 µL/min/mg; the Remaining is 18% and 44%. Further, in data set [1], the “Remaining (without cofactor)” value was 93% and 109%; the T1/2 was found to be 32.3 min. In data set [2], the half-life was 9.4 min; the microsomal CLint turned out to be 177 µL/min/mg; the CLint amounted to 147 µL/min/mg; the Remaining was 6% and 10%. Moreover, in data set [2], the “Remaining (without cofactor)” value is 97% and 102%; the T1/2 is 11.3 min.
With `CC(C)[C@H](Nc1ncnc2[nH]c(-c3cnn(C)c3C#N)cc12)c1ccc2c(c1)OCCO2`, in data set [1], the half-life was 2.4 min, the microsomal CLint was determined as 706 µL/min/mg, the Remaining was 1% and the “Remaining (without cofactor)” value is 103%. Besides, in data set [2], the half-life is 6.5 min, the microsomal CLint was determined as 257 µL/min/mg, the Remaining is on record as 2% and the “Remaining (without cofactor)” value was 113%.
On to `CNCc1cc(-c2cc3c(N[C@H](c4ccc5c(c4)S(=O)(=O)CCC5)C(C)C)ncnc3[nH]2)co1`, for which, in data set [1], the half-life was determined as 25.1 min, the microsomal CLint turned out to be 67 µL/min/mg, the Remaining was 33% and the “Remaining (without cofactor)” value came out at 98%. In data set [2], the half-life came to 41.8 min, the microsomal CLint was 40 µL/min/mg, the Remaining came out at 51% and the “Remaining (without cofactor)” value is listed as 96%.
Take `CC(C)[C@@H](Nc1ncnc2[nH]ccc12)c1ccc2c(c1)NC(=O)CO2`: in data set [1], the half-life was found to be 79 min; the microsomal CLint turned out to be 21 µL/min/mg; the CLint was found to be 31 µL/min/mg; the Remaining is 73% and 56%. In addition, in data set [1], the “Remaining (without cofactor)” value was 105% and 92%; the T1/2 is on record as 54.3 min. In data set [2], the half-life stood at 21.4 min; the microsomal CLint is 78 µL/min/mg; the CLint was determined as 80 µL/min/mg; the Remaining is 27% and 26%. Also, in data set [2], the “Remaining (without cofactor)” value was 93% and 110%; the T1/2 stood at 20.9 min.
As to `CC(C)[C@H](Nc1ncnc2[nH]c(-c3cnn(C)c3)cc12)c1ccc2c(c1)S(=O)(=O)CCC2`, in data set [1], the half-life worked out at 9.9 min, the intrinsic clearance (microsomal CLint) was 169 µL/min/mg, the Remaining is reported as 7% and the “Remaining (without cofactor)” value is listed as 95%. Besides, in data set [2], the half-life worked out at 6.5 min, the microsomal CLint stood at 255 µL/min/mg, the Remaining stood at 1% and the “Remaining (without cofactor)” value was 98%.
For the compound `CCNC(=O)c1cc2c(N[C@@H](c3ccc4c(c3)OCCO4)C(C)C)ncnc2[nH]1`, in data set [1], the “Remaining (without cofactor)” value was 103% and 97%. In data set [2], the half-life is 19 min; the microsomal CLint worked out at 88 µL/min/mg; the CLint stood at 72 µL/min/mg; the Remaining is 24% and 29%. Moreover, in data set [2], the “Remaining (without cofactor)” value was 109% and 92%; the T1/2 is on record as 23.2 min.
Regarding `CC(C)[C@H](Nc1ncnc2[nH]c(-c3cnn(CC(N)=O)c3)cc12)c1ccc2c(c1)S(=O)(=O)CCC2`, in data set [1], the half-life was 7 min, the intrinsic clearance (microsomal CLint) came to 240 µL/min/mg, the Remaining was 2% and the “Remaining (without cofactor)” value came out at 115%. In data set [2], the half-life is 42.6 min, the microsomal CLint was found to be 39 µL/min/mg, the Remaining is reported as 53% and the “Remaining (without cofactor)” value stood at 98%.
Regarding `CC(C)[C@H](Nc1ncnc2[nH]ccc12)c1ccc2c(c1)S(=O)(=O)CCC2`, in data set [1], the half-life came out at 29.5 min, the microsomal CLint is 57 µL/min/mg, the Remaining is listed as 37% and the “Remaining (without cofactor)” value is on record as 92%. Besides, in data set [2], the half-life amounted to 8.1 min, the microsomal CLint came out at 207 µL/min/mg, the Remaining is reported as 3% and the “Remaining (without cofactor)” value is 104%.
Regarding `CC(C)[C@H](Nc1ncnc2[nH]cc(C(=O)NC3CC3)c12)c1ccc2c(c1)S(=O)(=O)CCC2`, in data set [1], the half-life is 320 min, the microsomal CLint amounted to 5 µL/min/mg, the Remaining is reported as 90% and the “Remaining (without cofactor)” value turned out to be 112%. Further, in data set [2], the half-life turned out to be 39.5 min, the microsomal CLint stood at 42 µL/min/mg, the Remaining is recorded as 50% and the “Remaining (without cofactor)” value worked out at 102%.
Turning to `CNC(=O)Cn1cc(-c2cc3c(N[C@H](c4ccc5c(c4)S(=O)(=O)CCC5)C(C)C)ncnc3[nH]2)cn1`, in data set [1], the half-life came to 18.1 min, the microsomal CLint amounted to 92 µL/min/mg, the Remaining is listed as 23% and the “Remaining (without cofactor)” value came out at 101%. Further, in data set [2], the half-life turned out to be 15 min, the intrinsic metabolic clearance (microsomal CLint) amounted to 111 µL/min/mg, the Remaining worked out at 16% and the “Remaining (without cofactor)” value is reported as 96%.
On to `CNCc1cc(-c2cc3c(N[C@@H](c4ccc5c(c4)S(=O)(=O)NCC5)C(C)C)ncnc3[nH]2)co1`, for which, in data set [1], the half-life is 35.9 min, the microsomal CLint stood at 46 µL/min/mg, the Remaining was found to be 47% and the “Remaining (without cofactor)” value is recorded as 93%. In data set [2], the half-life stood at 40 min, the microsomal CLint stood at 42 µL/min/mg, the Remaining was 49% and the “Remaining (without cofactor)” value was found to be 95%.
For the compound `CC(C)[C@H](Nc1ncnc2[nH]c(C(=O)N[C@@H]3CCN(C)C3)cc12)c1ccc2c(c1)S(=O)(=O)CCC2`, in data set [1], the half-life was 627 min, the microsomal CLint stood at 3 µL/min/mg, the Remaining was found to be 98% and the “Remaining (without cofactor)” value came out at 100%. In data set [2], the half-life is 649 min, the intrinsic metabolic clearance (microsomal CLint) was found to be 3 µL/min/mg, the Remaining came to 104% and the “Remaining (without cofactor)” value is 107%.
